Earlier results, collected in patent publication US20200206183A1, “SYSTEMS, METHODS, AND FORMULATIONS FOR TREATING CANCER” (Research Cancer Institute of America, priority 2011, published 2020).

Experiments:
[1] = test system: patients who had cancer deemed no longer treatable by conventional methods
tyrosine kinase = details: measured in 11 subjects

Molecule	Dose concluded for further study ([1]; intravenous)	Suppression as defined by the radiological criteria of WHO ([1]; up to 1700 mg/m2 intravenous for about 3 weeks, 50 patients)	Patients with sustained decreases in unique cancer markers ([1]; up to 1700 mg/m2 intravenous, 50 patients)	Subjects with a decrease in tyrosine kinase levels (tyrosine kinase)	Toxicity (patients; oral doses up to 36 grams per day)	Patients with stable disease (patients; stable disease for more than 6 months while on the drug, one study)
O=c1c(O)c(-c2ccc(O)c(O)c2)oc2cc(O)cc(O)c12 [quercetin]	≤ 1400 mg/m2	None of the patients achieved suppression	two showed sustained decreases	9 subjects		
sodium phenylbutyrate [SPB]					minimal toxicity	25%
